In patent US5998666A, “Phenoxyethylamine derivatives, method of preparation, application as medicine and pharmaceutical compositions containing same” (Societe de Conseils de Recherches Et d'Applications …, priority 1996, dated 1999):

Molecular target: T1, 5-HT1A receptor (Rattus norvegicus, UniProt P19327)
T1 construct: from tissue; host or cells: cerebral cortex membranes of male Sprague Dawley rats
T1 sequence (P19327 1-422): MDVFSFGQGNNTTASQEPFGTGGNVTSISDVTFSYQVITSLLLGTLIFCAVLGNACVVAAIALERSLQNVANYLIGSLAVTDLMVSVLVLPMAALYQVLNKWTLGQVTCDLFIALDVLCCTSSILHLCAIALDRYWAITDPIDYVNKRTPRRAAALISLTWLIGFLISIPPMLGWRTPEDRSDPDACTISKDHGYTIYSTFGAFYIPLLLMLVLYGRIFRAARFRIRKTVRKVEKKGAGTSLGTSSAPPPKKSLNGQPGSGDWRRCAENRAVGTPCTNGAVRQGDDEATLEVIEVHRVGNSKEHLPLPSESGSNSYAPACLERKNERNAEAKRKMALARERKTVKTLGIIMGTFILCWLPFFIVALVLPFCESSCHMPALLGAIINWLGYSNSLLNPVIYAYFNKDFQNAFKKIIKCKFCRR
Assay: Affinity for 5-HT1A receptor: inhibition of [3H]8-OH-DPAT binding to rat cerebral cortex membranes
Conditions: [3H]8-OH-DPAT (1 nM), 30 min at 25° C., Tris-HCl 50 mM, pH=7.4
Description: The affinity of the compounds for serotonergic 5-HT1A receptors is determined by measuring the inhibition of [3H]8-hydroxy-2-(di-n-propylaminotetralin ([3H]8-OH-DPAT) bound to the cerebral cortex of the rat, according to the method of Peroutka and his coworkers [(J. Neurochem., 47, 529 (1986)].
Cerebral cortices of male Sprague Dawley rats are homogenised in Tris-HCl 50 mM, pH=7.4 and centrifuged at 40,000 g for 10 min at 4° C. Pellets are resuspended in the same buffer and incubated for 10 min at 37° C., and the homogenised products are centrifuged again at 40,000 g for 10 min at 4° C.
Competitive inhibition tests of [3H]8-OH-DPAT binding are carried out three times with unlabelled competitors, with concentrations between 100 pM and 100 μM. Cerebral cortex membranes of rats (10 mg wet weight/ml) are incubated with [3H]8-OH-DPAT (1 nM) for 30 min at 25° C. in Tris-HCl 50 mM, pH=7.4 containing 4 mM of CaCl2, […] of paragyline and 0.1% of ascorbic acid.
The bound [3H]8-OH-DPAT is separated from free [3H]8-OH-DPAT by immediate filtration by means of Whatman GF/B glass fibre filters using a Brandel cell recovery device. The filters are washed three times with the same buffer at 0-4° C. and their radioactivity is studied by means of a liquid scintillation spectrometer.
The specific binding is obtained by subtracting the binding determined in the presence of […] of 8-OH-DPAT from the total binding. The characteristics of the binding are analysed by iterative analysis of the non-linear regression by computer, using the Ligand program [Munson and Rodbard, Anal. Biochem., 107, 220 (1980)].

In order of falling Ki:
1. CC(=O)Nc1cccc(OCCNCCCCC(=O)NCC(C)(C)C)c1 [Compound 12, N-neopentyl-5-[{2-(3-(methylcarbonylamino)phenoxy)ethyl}-amino]pentanamide]  0.88 nM
2. COC(=O)Nc1cccc(OCCNCCCCC(=O)NCC(C)(C)C)c1 [Compound 13, N-neopentyl-5-[{2-(3-(methoxycarbonylamino)phenoxy)ethyl}amino]pentanamide]  0.84 nM
3. COc1ccccc1OCCNCCCCC(=O)NC(C)(C)C [Compound 1, N-tert-butyl-5-[{2-(2-methoxyphenoxy)ethyl}amino]pentanamide]  0.54 nM
4. CC(C)(C)CNC(=O)CCCCNCCOc1cccc(NC(N)=O)c1 [Compound 9, N-neopentyl-5-[{2-(3-(aminocarbonylamino)phenoxy)ethyl}-amino]pentanamide]  0.41 nM
5. CC(=O)Nc1cccc(OCCNCCCCC(=O)NC2CCCCC2)c1 [Compound 11, N-cyclohexyl-5-[{2-(3-(methylcarbonylamino)phenoxy)ethyl}amino]pentanamide]  0.37 nM
6. COc1ccccc1OCCNCCCCC(=O)NCC(C)(C)C [Compound 3, N-neopentyl-5-[{2-(2-methoxyphenoxyl)ethyl}amino]pentanamide]  0.32 nM
7. COc1ccccc1OCCNCCCCC(=O)NC1CCCC1 [Compound 4, N-cyclopentyl-5-[{2-(2-methoxyphenoxy)ethyl}amino]pentanamide]  0.29 nM
8. COc1ccccc1OCCNCCCCC(=O)NC1CCCCC1 [Compound 2, N-cyclohexyl-5-[{2-(2-methoxyphenoxy)ethyl}amino]pentanamide]  0.19 nM
9. NC(=O)Nc1cccc(OCCNCCCCC(=O)NC2CCCCCC2)c1 [Compound 10, N-cyclcoheptyl-5-[{2-(3-(aminocarbonylamino)phenoxy)ethyl}amino]pentanamide]  0.13 nM
10. COc1ccccc1OCCNCCCCC(=O)NC1CCCCCC1 [Compound 5, N-cycloheptyl-5-[{2-(2-methoxyphenoxy)ethyl}amino]pentanamide]  0.098 nM
